Holding throughout (assay type): cell-based
Experiment [1] has as its system HCC78 NSCLC cells (with ROS1 rearrangement). In words: MTT cytotoxicity assay on HCC78 NSCLC cells. As to conditions: Homo sapiens, 72 h, mean±SEM, read-out: IC50 (cell viability, MTT). How it is done: (§1) HCC78 cells and CCD19-Lu cells were obtained from the American Type Culture Collection and cultured in environment of 5% CO2 at 37° C. in RPMI-1640 (GIBCO, Lift Technologies) medium supplemented with 10% fetal bovine serum (FBS) (GIBCO, Lift Technologies), 100 units/mL penicillin, and 100 μg/mL streptomycin (GIBCO, Lift Technologies), crizotinib was purchased from Selleck Chemicals.
(§2) For MTT assay, 3000 cells were seeded on 96-well plates, then treated with DMSO or various concentrations of the compound of Formula (V) for 72 h. At the end of the incubation, 10 μL of MTT (5 mg/mL; Sigma) was added into each well, and the plates were incubated for an additional 4 hours, then the dark blue crystals were dissolved in 100 μL of the resolved solution (10% SDS and 0.1 mM HCL). Finally, the absorbance was measured by a microplate reader at 570 nm (Tecan, Morrisville, N.C., USA). The cell viability was calculated relative to untreated controls, with results based on at least three independent experiments.
In general terms: Tetrazolium dyes change colour on reduction, which living cells bring about.

Experiment [2] relates to normal lung cells (CCD19-Lu). In words: MTT cytotoxicity assay on normal lung cells. The following applies: Homo sapiens, CCD 19Lu, 72 h, 0-20 μM, read-out: IC50 (cell viability, MTT). As to the method: as §1, §2
In experiment [3] the test system is HCC78 cells. Briefly: Annexin-V FITC/PI flow cytometry apoptosis assay. As to conditions: HCC78 cells, 2.5, 5 and 10 μM, 24 h, compared to control group; concentration-dependent. How it is done:
HCC78 cells (1.0×10^5 cells/well) were allowed to attach in a 6-well plates for 24 h, cells were treated with the compound of Formula (V) for 24 h. Subsequently, cells were trypsinized, washed with PBS and stained with 100 μL binding buffer containing 2 μL Annexin-V FITC and 4 μL propidine iodide (PI) incubated in the dark at room temperature for 15 min, before further addition of 400 μL of 1× Annexin-binding buffer. The stained cells were analyzed quantitatively using a Flow Cytometer (BD Biosciences, San Jose, Calif., USA). Data were analyzed by Flow Jo software.

Experiment [4] deals with HCC78 cells. Briefly: colony formation assay. The following applies: HCC78 cells, 1.25, 2.5 and 5 μM, 10 days; dose-dependent. As to the method:
Still further, inhibitory effect of the compound of Formula (V) on the colony formation in HCC78 cells has been tested to provide further evidence that the compound of Formula (V) inhibits the formation of colonies of cancerous cell to an exceptional degree, too.
HCC78 cells were seeded on a six-well plate at a density of 500 cells per well. The cells were exposed to various concentrations of the compound of Formula (V). After 10 days, the colonies were fixed with 4% paraformaldehyde and stained with a 0.5% (0.5% w/v) crystal violet solutions, the number of colonies >50 was counted under a dissecting microscope and surviving fractions were calculated.

The subject of experiment [5] is ROS1 phosphorylation and ROS1 downstream signaling molecules pERK1/2, pSTAT3 and pAKT. Briefly: western blot of ROS1 phosphorylation and downstream signaling. The following applies: HCC78 cells, 2.5, 5 and 10 μM, dose-dependent. How it is done:
Additionally, the suppression of ROS1 phosphorylation as well as its downstream signaling pathway by the compound of Formula (V) has been studied.
Cells exposed to different concentrations of compound of Formula (V), namely 2.5, 5 and 10 μM or 2.5 μM crizotinib as described above and a control group were washed twice with cold PBS then lysed in RIPA lysis buffer containing protease and phosphatase inhibitors, protein concentration of the cell lysates were measured using the Bio-Rad protein Assay kit (Bio-Rad, Philadelphia, Pa., USA). After equalizing the protein concentrations of the samples, 5× laemmli buffer was added and boiled at 100° C. for 5 min. Equal amounts of protein (20-40 μg per lane) were separated with a 10% SDS-PAGE gel, then the separated proteins were transferred to a nitrocellulose (NC) membrane, which was then exposed to 5% non-fat dry milk in TBS containing 0.1% Tween 20 (0.1% TBST) for 1 hour at room temperature with constant agitation, followed by overnight incubation at 4° C. with primary antibodies, after washing 3 times by TBST, the membranes were incubated with secondary rabbit or mouse fluorescent antibodies, the signal intensity of the membranes was detected by an LI-COR Odessy scanner (Belfast, Me., USA). Antibodies against GAPDH, p-AKT, p-ROS1, ROS1, p-ERK, ERK, p-STAT3, STAT3 were purchased from Cell signaling Technology. […]
For orientation: Immunoblotting shows a protein as a band on a membrane.

Regarding `CCN(CC)CCNC(=O)c1cc2c(=O)n(C)c3cc(Cl)ccc3c2s1` [compound of Formula (V)], the 50% inhibitory concentration (IC50) in experiment [1] worked out at 6.35 ± 1.44 µM. The concentration for half-maximal inhibition (IC50) in experiment [2] is > 20 µM. In addition, the induction of apoptosis result in the experiment on HCC78 cells [3] is “induced significant levels of cell apoptosis compared to the control group”. Also, the “formation of HCC78 cell colonies” value with HCC78 cells [4] is given as “advantageously inhibited the formation of HCC78 cell colonies”. Further, in experiment [5], the “ROS1 downstream signaling molecules pERK1/2, pSTAT3 and pAKT” value is “inhibition”; the ROS1 phosphorylation entry is “inhibition of ROS1 phosphorylation”.

The term IC50 denotes the concentration that gives 50% inhibition.

The values above are taken from patent US9962378B2, “ROS1 inhibitor and its use” (Macau University of Science and Technology, priority 2015, dated 2018).
